# Key:
# [1] = Phase I dose-escalation study (NCT03585322) in chronic hepatitis B patients: safety; assay type: in vivo, human
# Protocol: (§1) Methods: This study (NCT number: NCT03585322) is a multi-center, single-agent, open-label, Phase I dose-escalation study. Chronic hepatitis B (CHB) patients without receiving anti-HBV treatment within 6 months before screening were recruited and administrated with Compound (I) weekly via intravenous infusion (IV) in 4 escalated dosage (7 mg, 12 mg, 20 mg and 30 mg) for 4 weeks followed with 12 weeks follow up. The primary objective of this study is to assess the safety, with secondary outcome measures focused on pharmacokinetics (PK) and Pharmacodynamics (PD) of Compound (I) as monotherapy in CHB patients.
# [2] = Phase I dose-escalation study (NCT03585322) in chronic hepatitis B patients: pharmacokinetics; assay type: in vivo, human
# Protocol: as §1
# hepatitis B virus (HBV) = assay: Phase I dose-escalation study (NCT03585322) in chronic hepatitis B patients: pharmacodynamics (HBsAg, HBV DNA); assay type: in vivo, human
# Protocol: as §1
# [3] = Phase I dose-escalation study (NCT03585322) in chronic hepatitis B patients: other findings (Fibro test score, ALT normalization); assay type: in vivo, human; settings: for Fibro Test Score Changes from baseline to end of follow-up, Mean(SD): 12 weeks follow up
# Protocol: as §1
# [4] = tested on: IAPs (inhibitor of apoptosis proteins); assay: Preclinical studies: IAP inhibition in vivo and in vitro
# chronic HBV infections = assay: Preclinical studies: clearance of chronic HBV infection in different models
# [5] = 7 mg weekly IV for 4 weeks, n = 3 CHB patients
# [6] = 12 mg weekly IV for 4 weeks, n = 9 CHB patients
# [7] = 20 mg weekly IV for 4 weeks, N = 6 CHB patients
# [8] = 30 mg weekly IV for 4 weeks, N = 6 CHB patients
structure (smiles),measurement,setting,value
"CN[C@@H](C)C(=O)N[C@H]1CN(S(=O)(=O)c2cccc(S(=O)(=O)N3CC[C@H]4CC[C@@H](C(=O)NC(c5ccccc5)c5ccccc5)N4C(=O)[C@@H](NC(=O)[C@H](C)NC)C3)c2)CC[C@H]2CC[C@@H](C(=O)NC(c3ccccc3)c3ccccc3)N2C1=O [Compound (I), (5S ,5′S ,8S ,8′S,10aR,10a′R)-3,3′-(1,3-phenylenedisulfonyl)bis(N-benzhydryl-5-((S)-2-(methylamino)propanamido)-6-oxodecahydropyrrolo[1,2-a][1,5]diazocine-8-carboxamide)]",Any Drug-Related TEAE (%),[1]; [5],(66.7%)
same,Any Drug-Related TEAE N,[1]; [5],2
same,SAE (%),[1]; [5],(0%)
same,SAE N,[1]; [5],0
same,Any Drug-Related TEAE (%),[1]; [6],(33.3%)
same,Any Drug-Related TEAE N,[1]; [6],3
same,SAE (%),[1]; [6],(0%)
same,SAE N,[1]; [6],0
same,Any Drug-Related TEAE (%),[1]; [7],(100.0%)
same,Any Drug-Related TEAE N,[1]; [7],6
same,SAE (%),[1]; [7],(0%)
same,SAE N,[1]; [7],0
same,patients with grade 2 facial nerve disorder,[1]; 30 mg cohort,1 patient
same,time to recovery from grade 2 facial nerve disorder,"[1]; 30 mg cohort, 1 patient",≤ 4 weeks
same,Any Drug-Related TEAE (%),[1]; [8],(83.3%)
same,Any Drug-Related TEAE N,[1]; [8],5
same,SAE (%),[1]; [8],(16.7%)
same,SAE N,[1]; [8],1
same,"drug-related adverse event: ALT increase, incidence",[1]; all cohorts 7-30 mg weekly IV,26%
same,"drug-related adverse event: AST increase, incidence",[1]; all cohorts 7-30 mg weekly IV,22%
same,"drug-related adverse event: infusion site pain, incidence",[1]; all cohorts 7-30 mg weekly IV,15%
same,"drug-related adverse event: infusion site reaction, incidence",[1]; all cohorts 7-30 mg weekly IV,15%
same,"drug-related adverse event: total bile acids increase, incidence",[1]; all cohorts 7-30 mg weekly IV,15%
same,patients with grade 3 ALT or AST elevation,[1]; all cohorts 7-30 mg weekly IV,Four
same,"safety and tolerability, overall",[1]; ascending doses from 7 mg to 30 mg,safe and well tolerated
same,"grade 3 ALT or AST elevation, extent",[1]; the four patients with grade 3 elevation,5-15 × ULN
same,PK analysis: plasma exposure versus dose,"[2]; 7, 12, 20, 30 mg weekly IV",dose proportional increase in plasma exposure
same,PK analysis: accumulation after multiple dosing,[2]; weekly IV for 4 weeks,no accumulation after multiple dosing
same,patients with reduction of HBsAg at ≥0.5 log,hepatitis B virus (HBV); 5/26 patients,19%
same,patients with reduction of HBsAg at ≥0.2 log,hepatitis B virus (HBV); 12/26 patients,46%
same,patients with decline of HBV DNA,hepatitis B virus (HBV); 23 of 26 patients,89%
same,patients with prolonged HBsAg reduction,"hepatitis B virus (HBV); during post-treatment follow-up, 11/23 patients",48%
same,patients with reduction of HBsAg,"hepatitis B virus (HBV); week 4, 17 of 26 patients",65%
same,"Fibro Test Score Changes from baseline to end of follow-up, Mean(SD)","[3]; 7 mg weekly IV for 4 weeks, N = 3",0.27 kPa
same,"Fibro Test Score Changes from baseline to end of follow-up, Mean(SD)","[3]; 12 mg weekly IV for 4 weeks, N = 3",−1.80 kPa
same,"Fibro Test Score Changes from baseline to end of follow-up, Mean(SD)","[3]; 20 mg weekly IV for 4 weeks, N = 6",−0.33 kPa
same,"Fibro Test Score Changes from baseline to end of follow-up, Mean(SD)","[3]; 30 mg weekly IV for 4 weeks, N = 2",−4.05 kPa
same,patients with ALT normalization,[3]; 10/22 patients,46%
same,inhibition of IAPs,[4],inhibits IAPs in vivo and in vitro
same,clearance of chronic HBV infections,chronic HBV infections,can clear chronic HBV infections in different models

# — patent US20220047606A1, “TREATMENT METHOD WITH IAP INHIBITOR” (Ascentage Pharma (Suzhou) Co., Ltd., priority 2019, published 2022)
